Assay results from patent US20040058980A1, “Useful aroyl pyrrole heteroaryl methanones and methanols” (priority 2001, published 2004).
Structures can show the parent of a compound that is named as a salt. Marks after values point to notes of the source that are not given here.

Key:
toxic extensor seizure = assay: Mouse maximal electroshock test (MES), anticonvulsant model; type: in vivo; details: for MES Response, number of mice protected/number of mice tested: oral, 300 mpk
Method: Procedure for Testing in Mouse Anticonvulsant Model
The activity of the present compounds as anticonvulsant agents was determined using a standard mouse “maximal electroshock test” (MES). In this test, activity was indicated by a block of the […] extensor seizure, as described by Swinyard, et al. (J. Pharmacol. Exptl. Therap., 1952, 106, 319). A more recent description of current anticonvulsant drug screening is given in Swinyard, et al., in Epilepsia, 1978, 19, 409.
The anticonvulsant activity of the instant compounds is shown in Table 5 and was evaluated according to the Swinyard (1952) method. The abbreviations used in the table have the following meanings: mpk refers to the dose orally administered in “mg per Kg;” and, ED50 refers to the “50% Effective Dose” orally administered in mpk. The values marked by an * represent the number of mice protected/number of mice tested; therefore, a value of 3/3 represents that the number of mice protected matched the number of mice tested at the indicated dose.

mechanical allodynia = assay: Chung Model (spinal nerve ligation), mechanical allodynia with von Frey hairs; type: in vivo; parameters: key to Chung Model result in words (IA): IA: inactive at the screening dose; details: rat; for ED50 in the Chung Model: orally administered; for Chung Model result in words (IA) / % MPE (Maximum Possible Effect) in the Chung Model: oral, screening dose (not given)
From the text: Procedure for Testing Antiallodynic Effect
The procedure used to detect the antiallodynic effect of a compound of the present invention for which there is a good correlation with human efficacy for the treatment of pain is the procedure for the measurement of allodynia found in the Chung Model (Kim S. H. and Chung J. M., An Experimental Model for Peripheral Neuropathy Produced by Segmental Spinal Nerve Ligation in the Rat, Pain, 1992, 50, 355-363). The antiallodynic effect of the composition of the present invention in the Chung Model is expressed in % MPE (Maximum Possible Effect).
Male Sprague-Dawley rats, weighing approximately 200 g each were anesthetized with isoflurane. The spinal nerve at the level of L5 was exposed through an incision just left of the dorsal midline and tightly ligated with 6-0 silk. At various times after surgery, animals were tested for mechanical allodynia with von Frey hairs (monofilaments which are calibrated to bend under a certain amount of pressure, ranging from 0.41 to 15.1 g). In order to calculate a paw withdrawal threshold (PWT), tactile allodynia was measured by recording the pressure at which the affected paw was withdrawn from graded stimuli according to the procedure of S. R. Chaplan, J. W. Pogrel, T. L. Yaksh, Role of Voltage-Dependent Calcium Channel Subtypes in Experimental Tactile Allodynia, J. Pharmacol. Exp. Ther., 1994, 269, 1117-1123. Normal rats can withstand at least 15 g of pressure without responding. Operated rats, however, can respond to as little as 0.25 g of pressure. The surgery was deemed successful if the animal responded with a PWT of less than 4 g of pressure applied to the affected paw. […] The PWT was used to calculate the % maximal possible effect (% MPE) according to the formula:
% MPE=100×[(PWT−CT)/(CO−CT)];
wherein PWT is defined as Paw Withdrawal Threshold, CT is Control Threshold, and CO is Cut Off (defined as 15 g).
The sham operation consisted of a similar surgery; the spinal nerve was visualized without being ligated.
Compounds selected from Formula (I) and Formula (II) were tested for activity in treating or modulating neuropathic pain by being dissolved or suspended in either water or hydroxypropyl methylcellulose, respectively. […] were fasted overnight prior to dosing. Animals were orally dosed and dosage volumes were calculated on a 4 mL/kg basis.

[1] = test system: voltage-gated sodium channels; assay: [14C]guanidinium flux assay, veratridine-stimulated SK-N-SH cells; type: cell-based; details: 100 μM compound, 100 μM veratridine
Method: Screening Assay for Voltage-Gated Sodium Channel Antagonists
[^14C] Guanidinium Flux Assay
SK-N-SH neuroblastoma cells were maintained in a propagation medium containing modified Eagle's medium and 10% (v/v) fetal bovine serum and were incubated at 37° C. in a 5% CO2 atmosphere. Only cells with fewer than 20 passages were used in each assay. All drugs were prepared in DMSO, and the final concentration of solvent was less than 0.1% (v/v). Veratridine, a toxin that selectively promotes persistent activation of voltage-gated sodium channels, served as the stimulus.
SK-N—SH cells were plated at 1×10^5 cells/well in 96-well Cytostar-T microscintillating plates in propagation medium and experiments were performed 6-7 days after plating. Prior to assay, the SK-N-SH cells were washed twice with assay buffer containing 50 mM HEPES (pH 7.45), 5.4 mM potassium chloride, 0.8 mM magnesium chloride, 130 mM choline chloride, 5.5 mM glucose and 0.1 mg/mL bovine serum albumin. Next, the plates were allowed to equilibrate for 10 min at 37° C. in assay buffer. […] The 96-well dosing plate was prepared by mixing 25 μL of a drug/assay buffer solution per well with 25 μL of 0.7 μCi/mL [^14C]guanidine hydrochloride in assay buffer. […] The plates were incubated for 1 hr at room temperature and the radioactivity was counted in a 1450 Microbeta scintillation counter. […]

Row | melting point [°C] | SMILES | further results
1 | 174 to 175 | Cn1cc(C(=O)c2ccncc2)cc1C(=O)c1ccc(Cl)cc1 [Cpd 1, [5-(4-Chlorobenzoyl)-1-methyl-1H-pyrrol-3-yl]pyridin-4-ylmethanone] | MES Response ED50 (toxic extensor seizure; orally administered): ED50 = 156.97 mpk; ED50 in the Chung Model (mechanical allodynia): ED50 = 22 mpk
2 | 127 to 129 | Cn1cc(C(=O)c2ccncc2)cc1C(=O)c1ccccc1 [Cpd 2, (5-Benzoyl-1-methyl-1H-pyrrol-3-yl) pyridin-4-ylmethanone] | 
3 | 134 to 136 | Cc1ccc(C(=O)c2cc(C(=O)c3ccncc3)cn2C)cc1.Cl [Cpd 3, [1-Methyl-5-(4-methyl benzoyl)-1H-pyrrol-3-yl]pyridin-4-ylmethanone Hydrochloride] | 
4 | 243 to 245 | Cl.Cn1cc(C(=O)c2ccncc2)cc1C(=O)c1cccs1 [Cpd 4, [1-Methyl-5-(thiophene-2-carbonyl)-1H-pyrrol-3-yl]pyridin-4-ylmethanone Hydrochloride] | MES Response, number of mice protected/number of mice tested (toxic extensor seizure): 0/1* @ 300 mpk; Chung Model result in words (IA) (mechanical allodynia): IA
5 | 138 to 139 | Cn1cc(C(=O)c2ccccn2)cc1C(=O)c1ccc(Cl)cc1 [Cpd 6, [5-(4-Chlorobenzoyl)-1-methyl-1H-pyrrol-3-yl]pyridin-2-yl-methanone] | 
6 | 220 to 223 | Cl.Cn1cc(C(=O)c2ccc(F)cc2)cc1C(=O)c1cccnc1 [Cpd 7, (4-Fluorophenyl)-[1-methyl-5-(pyridine-3-carbonyl)-1H-pyrrol-3-yl]methanone Hydrochloride] | ED50 in the Chung Model (mechanical allodynia): ED50 = 22 mpk
7 | 159 to 161 | Cn1cc(C(=O)c2ccc(F)cc2)cc1C(=O)c1ccccn1 [Cpd 10, (4-Fluorophenyl)-[1-methyl-5-(pyridine-2-carbonyl)-1H-pyrrol-3-yl]methanone] | MES Response, number of mice protected/number of mice tested (toxic extensor seizure): 0/1* @ 300 mpk
8 | 155 to 157 | Cn1cc(C(=O)c2ccc(F)cc2)cc1C(=O)c1ccncc1 [Cpd 11, (4-Fluorophenyl)-[1-methyl-5-(pyridine-4-carbonyl)-1H-pyrrol-3-yl]methanone] | MES Response, number of mice protected/number of mice tested (toxic extensor seizure): 0/1* @ 300 mpk
9 | 198 to 200 | Cn1cc(C(=O)c2cnc[nH]2)cc1C(=O)c1ccc(Cl)cc1 [Cpd 13, (4-Chlorophenyl)-[4-(3H-imidazole-4-carbonyl)-1-methyl-1H-pyrrol-2-yl]methanone] | Chung Model result in words (IA) (mechanical allodynia): IA
10 | 182 to 184 | Cn1cc(C(=O)c2ccnc(Cl)c2)cc1C(=O)c1ccc(Cl)cc1 [Cpd 19, (4-Chlorophenyl)-[4-(2-chloropyridine-4-carbonyl)-1-methyl-1H-pyrrol-2-yl]methanone] | 

Second part, the compound before the results:

Row | SMILES | melting point [°C] | further results
11 | Cc1c(C(O)c2ccncc2)c(C)n(C)c1C(=O)c1ccc(Cl)cc1 (stereo not drawn) (as salt: hydrochloride) [Cpd 18, (4-Chlorophenyl)-[4-(hydroxypyridin-4-yl-methyl)-1,3,5-trimethyl-1H-pyrrol-2-yl]methanone] | 174 to 176 | 
12 | Cl.Cn1cc(C(=O)c2cccnc2)cc1C(=O)c1ccc(Cl)cc1.Cn1cc(C(=O)c2cccnc2)cc1C(=O)c1ccc(Cl)cc1.O [Cpd 5, [5-(4-Chlorobenzoyl)-1-methyl-1H-pyrrol-3-yl]pyridin-3-ylmethanone Hydrochoride Hydrate [2:1:1]] |  | % MPE (Maximum Possible Effect) in the Chung Model (mechanical allodynia): 9%
13 | Cn1cc(C(=O)c2ccc3ccccc3c2)cc1C(=O)c1cccnc1 [Cpd 8, [1-Methyl-5-(pyridine-3-carbonyl)-1H-pyrrol-3-yl]naphthalen-2-yl-methanone] | 132 to 133 | MES Response, number of mice protected/number of mice tested (toxic extensor seizure): 0/1* @ 300 mpk
14 | Cn1cc(C(=O)c2ccc(Cl)cc2)cc1C(=O)c1ccc(Cl)nc1 [Cpd 9, (4-Chlorophenyl)-[5-(6-chloropyridine-3-carbonyl)-1-methyl-1H-pyrrol-3-yl]methanone] | 150 to 152 | 
15 | Cn1cc(C(O)c2ccncc2)cc1C(=O)c1ccc(Cl)cc1 (stereo not drawn) [Cpd 12, (4-Chlorophenyl)-[4-(hydroxypyridin-4-yl-methyl)-1-methyl-1H-pyrrol-2-yl]-methanone] | 145 to 146 | % GFI (% guanidinium flux inhibition) @ 100 μM [1]: 4 @ 100%
16 | Cn1cc(C(=O)c2cc[n+]([O-])cc2)cc1C(=O)c1ccc(Cl)cc1 [Cpd 15, (4-Chlorophenyl)-[1-methyl-4-(1-oxypyridine-4-carbonyl)-1H-pyrrol-2-yl]methanone] |  | % MPE (Maximum Possible Effect) in the Chung Model (mechanical allodynia): 7.9%
17 | Cc1c(C(=O)c2ccc(F)cc2)c(C)n(C)c1C(=O)c1cccnc1 [Cpd 17, (4-Fluorophenyl)-[1,2,4-trimethyl-5-(pyridine-3-carbonyl)-1H-pyrrol-3-yl]methanone] | 85 to 88 | 
